Measured values taken from patent publication US20260257186A1, “Tunable Structure of Biodegradable Silk-Based Microcapsules for Soluble and Insoluble Payload Delivery” (MASSACHUSETTS INSTITUTE OF TECHNOLOGY, priority 2021, published 2026).
In brackets after ≈: the same amount, converted by molar mass.

Columns and labels:
[1] = Release of SF/Saf microcapsules, released Saf by UV-Vis; format: physicochemical; details: without silk encapsulation; 10% Pluronic PE 10500 aqueous suspension; FIG. 5C
Procedure: Release of SF/Saf microcapsules: around 5 mg of different SF/Saf microcapsules were dispersed in 50 mL of 10% Pluronic PE 10500 aqueous suspension, wrapped in Al foil and under 20 rpm mind shaking. After certain time intervals, 0.75 mL of suspension was taken for UV-Vis measurement to determine the concentration of released Saf. The characteristic UV absorption peak position of Saf is around 271 nm.
All release and degradation tests were run in triplicates, and the standard errors for the analytical results were used to generate and present error bars.
The surface morphologies of microcapsules structures were investigated using a Zeiss Merlin High-resolution SEM operating at 0.8 kV for low-, medium- and high-resolution imaging. The elemental analysis was carried out on Zeiss Merlin SEM with energy-dispersive X-ray spectroscopy (EDS). Optical images of SF/DA emulsions were taken with a Nikon Eclipse TE2000-E optical microscope. The concentrations of released VC and Saf were determined by ultraviolet-visible (UV-Vis) spectroscopy on a VWR UV-1600PC spectrophotometer. Chemical structures of SF were studied with Fourier transform infrared (FTIR) spectroscopy from a Perkin Elmer Spectrum 65 spectrometer with the attenuated total reflection (ATR) accessory. […] The data was analyzed on volume-based distribution.

[2] = cited from earlier work

Compound: CC(C)N(C)S(=O)(=O)NC(=O)c1cc(-n2c(=O)cc(C(F)(F)F)n(C)c2=O)c(F)cc1Cl [Saf, Saflufenacil]
- burst release of Saf [1]: ~25%
- solubility in organic solvents ([2]; organic solvents): limited
- thermal decomposition T ([2]; solid powder): around 236 °C
- solubility in water ([2]; water): 2000 µg/mL (≈ 3.99 mM)
